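48-hour exposure; five concentrations; linearly interpolated endpoints. TGI: total growth inhibition.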
Columns and labels:
Test in all cases: NCI-60 cell line screen, 48 h
[1] = system: BT-549 breast
[2] = system: CAKI-1 renal
[3] = system: HT29 colon
[4] = system: SF-268 CNS
[5] = system: PC-3 prostate
[6] = system: U251 CNS
[7] = system: EKVX NSCLC
[8] = system: NCI-H522 lung
[9] = system: CCRF-CEM leukemia
[10] = system: ACHN renal

Structure (SMILES)	TGI [1] [µM]	TGI [2] [µM]	TGI [3] [µM]	TGI [4] [µM]	TGI [5] [µM]	TGI [6] [µM]	TGI [7] [µM]	TGI [8] [µM]	TGI [9] [µM]	TGI [10] [µM]
O=C1CSC(c2ccccc2[N+](=O)[O-])N1c1ccc(-c2ccc(-n3c(-c4ccccc4)nc4ccccc4c3=O)cc2)cc1 (stereo not given)	> 100	> 100	> 100	> 100	> 100	> 100	> 100	> 100	> 100	> 100
COc1cc(NCCC2CCCCN2)c2ncccc2c1 (stereo not given)	> 100	> 100	> 100	> 100	> 100	> 100	> 100	> 100	> 66.3	> 100
N#Cc1c(-c2ccc(Cl)cc2)[nH]c(=O)n(C2OC(CO)C(O)C(O)C2O)c1=O (stereo not given)	> 100	> 100	> 100	> 100	> 100	> 100	> 100	> 100	> 100	> 100
CC(=O)Nc1c(C)cc2c(nc3n2CCC3OC(C)=O)c1[N+](=O)[O-] (stereo not given)	> 100	> 100	> 100	> 100	> 100	> 100	> 100	> 100	> 100	> 100
N#CC(=N)c1ncn(-c2ccc(N)cc2)c1N	> 100	> 100	> 100	> 100	> 100	> 100	> 100	> 100	> 100	> 100
CC(=O)O[C@H]1CC[C@@]2(C)C(=CC[C@@H]3[C@@H]2CC[C@]2(C)c4c(C)nn(-c5ccccc5)c4C[C@@H]32)C1	23.8	47.2	> 100	> 100	> 100	> 100	53.7	45.3	56.9	61.1
O=C(O)CCSCc1ccccc1	> 100	> 100	> 100	> 100	> 100	> 100	> 100	> 100	> 100	> 100
CC(C)=CC(Cc1ccccc1)S(=O)(=O)c1nc2ccccc2s1 (stereo not given)	38.6	22.1	41.7	36.5	31.9	29.4	41.7	29	7.49	42.9
COC(=O)c1cc(C(=CCC[C@H]2CC[C@@]3(C)C(CCC4C3CC[C@@]3(C)C4CC[C@@H]3C(C)CCCC(C)C)C2)c2cc(Cl)c(O)c(C(=O)OC)c2)cc(Cl)c1O (stereo not given in full)	> 10	> 10	> 10	> 10	> 10	> 10	> 10	> 10	> 10	> 10
NCCCC[C@H](N)C(=O)Nc1ccc(-c2nc3ccccc3s2)cc1	84.9	> 100	30.1	55.6	> 100	29.4	23.9	33.9	23.6	55
C/C=C(\C)C(O)C(C)C(O)C/C=C(C)/C=C(\C)C/C(C)=C/C/C=C(\C)C(O)C(C)c1ccc(CCC)c(=O)o1 (stereo not given)	25	31.8	3.32	37.5	21.3	24.1	> 100	17.2	> 100	53.2
NC(Cc1ccc(N(CCCl)CCCl)cc1)C(=O)NC(CCC(=O)O)C(=O)O (stereo not given)	> 100	> 100	> 100	> 100	> 100	> 100	> 100	> 100	> 100	> 100
COC(O)C(=O)c1ccc2c(c1)CC1(C2)Cc2cc3c(cc2C1=O)CCC3 (stereo not given)	31.8	31.2	42.3	43.3	30.8	35.5	45.7	35.7	48	30.6
CC(C)C(=O)Nc1cc(C(F)(F)F)ccc1[N+](=O)[O-]	> 100	> 100	> 100	> 100	> 100	> 100	> 100	> 100	> 100	> 100
CN(C)CCn1c(=O)c2ccc(NCCN3CCNCC3)c3c(=O)c4ccccc4n(c1=O)c23	22.9	10.2	18.8	18.7	16.2	24.8	18.6	10	4.4	15.7
C=C(CCC/C(C)=C/C=C/[C@@H](C)CCCc1ccoc1)C[C@@H]1OC(=O)[C@H](C)[C@@H]1O	17.1	20.1	> 50	18.5	15.6	25.4	19.4	15.5	24.6	16.2
O=c1[nH]nc(Cc2c[nH]c3ccccc23)o1	> 100	> 100	> 100	> 100	> 100	> 100	> 100	> 100	> 100	> 100

Structure (SMILES)	TGI [1] [µM]	TGI [2] [µM]	TGI [3] [µM]	TGI [4] [µM]	TGI [5] [µM]	TGI [6] [µM]	TGI [7] [µM]	TGI [8] [µM]	TGI [9] [µM]	TGI [10] [µM]
O=C(c1ccccc1)c1ccc2[nH]c(-c3c(Cl)c(Cl)c(Cl)c(Cl)c3C(=O)N/N=C/c3cccc(Oc4ccccc4)c3)nc2c1	> 100	> 100	> 100	> 100	> 100	> 100	> 100	> 100	> 100	> 100
COc1cc(/C=N/n2c(-c3ccccc3)nn(C(C)=O)c2=O)cc(OC)c1OC	> 74.2	> 100	> 44.3	> 100	> 81.8	> 44.6	99.2	8.56	> 100	> 64.6
CCOC(=O)C1=CCOc2cc(N(C)C)ccc21	> 100	> 100	> 100	> 100	> 100	> 100	> 100	> 100	64	> 100
CC(C)=CCC/C(C)=C/CC/C(C)=C/CC/C(C)=C/CC/C(C)=C/CC/C(C)=C/CC/C(C)=C/CC/C(C)=C/CC/C(C)=C/CO	> 100	> 100	> 100	> 100	> 100	> 100	> 100	> 100	> 100	> 100
CS(=O)(=O)c1ccc(N=C/C=C/Nc2ccc(S(C)(=O)=O)cc2)cc1	> 100	> 100	> 100	> 100	> 100	> 100	> 100	> 100	> 100	> 100
COc1ccccc1C1ON=C(c2ccc([N+](=O)[O-])cc2)N1C12CC3CC(CC(C3)C1)C2 (stereo not given)	> 100	> 100	> 100	> 100	> 100	> 100	> 100	> 100	> 100	> 100
CC(C)O/N=C/c1cc(NC(=S)OC(C)C)ccc1Cl	> 100	> 84.7	66.3	> 69.8	> 100	> 70.2	> 75.2	> 67.4	34.6	97.6
Cn1c(=O)c2c(nc3n2CCCC(=O)N3CC(O)CCl)n(C)c1=O (stereo not given)	> 100	> 100	> 100	> 100	> 100	> 100	> 100	> 100	> 100	> 100
COC(=O)C(Cc1c[nH]c2ccccc12)NC(=O)c1ccc(-c2ccc(Cl)cc2Cl)o1 (stereo not given)	> 100	> 100	> 100	> 100	49.5	> 100	> 100	> 100	> 100	> 100
C/C(CC(O)(/C=N/O)c1ccccc1)=N/O (stereo not given)	> 100	> 100	> 100	> 100	> 100	> 100	> 100	> 100	> 100	> 100
Cc1cc(Cc2cc(C)c(NC(=O)C(=O)C3CCC4=C(SC5C=CC=CC5N4)C3=O)c(C(C)C)c2)cc(C(C)C)c1NC(=O)C(=O)C1CCC2=C(SC3C=CC=CC3N2)C1=O (stereo not given)	> 100	> 100	> 100	> 100	90.9	> 100	> 100	67.2	> 100	> 100
O=c1c2cc3c(=O)n4c(cc(-c5ccccc5)c5cc(Cl)ccc54)nc3cc2nc2cc(-c3ccccc3)c3cc(Cl)ccc3n12	> 100	> 100	> 100	> 100	> 100	> 100	> 100	> 100	> 100	> 100
CCOC(=O)C(Cc1ccc(OC(=O)c2ccc(OC)cc2)cc1)NC(=O)C(F)(F)F (stereo not given)	> 100	> 100	> 100	> 100	> 100	> 100	> 100	> 100	> 100	> 100
NC(=O)Cc1nc2c(N)ncnc2n1C1OC(CO)C(O)C1O (stereo not given)	> 100	> 100	> 100	> 100	> 100	> 100	> 100	> 100	> 100	> 100
CC(=O)OCC1OC(Nn2c(=O)[nH]c3ccccc3c2=O)C(OC(C)=O)C(OC(C)=O)C1OC(C)=O (stereo not given)	> 100	> 100	> 100	> 100	> 100	> 100	> 100	> 100	> 100	> 100
Cc1ccc(S(=O)(=O)Oc2nc3ccccc3nc2OS(=O)(=O)c2ccc(C)cc2)cc1	> 100	82.4	> 100	> 100	> 100	> 100	> 100	49.9	> 100	> 100

From PubChem BioAssay (NCI)
